Legend:
Format in all cases: cell-based
[1] = system: Bovine Pulmonary Artery Endothelium; assay: Transendothelial electrical resistance (TER) across bovine pulmonary artery endothelium; conditions: VEGF 100 ng/ml, Sph 1-P 1 μM, HGF 20 ng/ml
Method: Bovine pulmonary artery endothelial cells were purchased from the American Type Culture Collection (ATCC®, Rockville, Md.) and utilized at passage 19-24. Cells were maintained in Medium 199 (Life Technologies, Rockville, Md.) supplemented with 20% (v/v) colostrum-free bovine serum (CFBS) (Irvine Scientific, Santa Ana, Calif.), 15 μg/ml endothelial cell growth supplement (Upstate Biotechnology, Lake Placid, N.Y.), 1% antibiotic and antimycotic, and 0.1 mM non-essential amino acids (Life Technologies). Human pulmonary artery endothelial cells were purchased from Clonetics (Walkersville, Md.), cultured in EBM-2 complete medium (Clonetics) and utilized at passage 5-10. Human alveolar epithelial cells (A549) were purchased from ATCC® and cultured in the same medium as the bovine endothelial cells, except that the endothelial cell growth supplement was omitted. All cells were maintained at 37° C. in a humidified atmosphere of 5% CO2 and 95% air.
Electrical resistance of EC monolayers was measured using electrical cell impedance sensor system (Applied Biophysics Inc., Troy, N.Y.) as described in Garcia, J. G. N. et al. (2000) J. Appl. Physiol. 89:2333-2343. Cells grown on gold microelectrodes (10^−3 cm^2) in polycarbonate wells act as insulating particles, and the resistance across the monolayers (transendothelial electrical resistance, or TER) is measured in real time. As cells adhere on the microelectrode and intercellular cell contacts are formed or in response to agents which increase junctional integrity, the TER increases (Garcia, J. G. N. et al. (2001) J. Clin. Invest. 108:689-711). In contrast, cell retraction, rounding, or loss of adhesion is reflected by decreases in TER (Garcia, J. G. N. et al. (2000) J. Appl. Physiol. 89:2333-2343). These measurements provide a highly sensitive biophysical assay that indicates the state of cell shape, focal adhesion, and endothelial barrier function (Giaever, I. and Keese, C. R. (1993) Nature 366:591-592; Tiruppathi, C. et al. (1992) Proc. Natl. Acad. Sci. USA 89:7919-7923). All electrical resistance data are presented as normalized values. Briefly, current was applied across the electrodes by a 4000 Hz AC voltage source with an amplitude of 1 V in series with a 1 MΩ resistance to approximate a constant current source (−1 μA). The small gold electrode and the larger counter electrode (1 cm^2) were connected to a phase-sensitive lock-in amplifier (5301A; EG&G Instruments Corp, Princeton, N.J.) with a built in differential preamplifier (5316A; EG&G Instruments Corp.). The in-phase and out-of-phase voltages between the electrodes were monitored in real time with the lock-in amplifier and converted to scalar measurements of transendothelial impedance, of which resistance was the primary focus. […] For some experiments, total TER was vectorially resolved into components reflecting resistance to current flow beneath the cell layer (α) and resistance to current flow between adjacent cells (Rb) as described in Garcia et al. (2000) supra utilizing the method of Giaiver and Keese which models the endothelial monolayer mathematically (Giaever, I. and Keese, C. R. (1993) Nature 366:591-592). Thus, changes in α reflect alterations in the net state of cell-matrix adhesion, whereas changes in Rb reflect alterations in the integrity of cell-cell adhesion. TER values from each microelectrode were pooled at discrete time points and plotted versus time as the mean±standard error of the mean (Garcia et al. (2000) supra).

[2] = system: human alveolar epithelial cells (A549); assay: Electrical resistance of A549 alveolar epithelial cells on gold microelectrodes; conditions: HGF 100 ng/mL; sphingosine 1-phosphate 1 μM
Method: FIGS. 1A-1D depict HGF-mediated increases in human transendothelial electrical resistance (TER). FIG. 1A: Human pulmonary artery endothelial cells were grown to confluence on gelatinized gold microelectrodes. Two hours prior to TER measurement, growth medium was replaced with serum-free M199. Serial-diluted HGF was added to cells at indicated concentrations and TER monitored for 2.5 hr. […] The result shown is a representative TER tracing of three independent experiments. FIG. 1B: Similar to FIG. 1A, human alveolar epithelial cells (A549) were grown on gold microelectrodes and challenged with vehicle, HGF, (100 ng/mL) or sphingosine 1-phosphate (1 μM). […]
Electrical resistance of EC monolayers was measured using electrical cell impedance sensor system (Applied Biophysics Inc., Troy, N.Y.) as described in Garcia, J. G. N. et al. (2000) J. Appl. […] Cells grown on gold microelectrodes (10^−3 cm^2) in polycarbonate wells act as insulating particles, and the resistance across the monolayers (transendothelial electrical resistance, or TER) is measured in real time. […] The in-phase and out-of-phase voltages between the electrodes were monitored in real time with the lock-in amplifier and converted to scalar measurements of transendothelial impedance, of which resistance was the primary focus. […]

Rac GTPase = Rac GTPase activity, p21 Rac-binding domain assay; conditions: HGF 10 ng/mL or Sph-1-P 1 μM for 1 or 5 min
Method: Endothelial cells grown in 100 mm dishes were incubated with agonists in serum-free M199. Cells were lysed in 500 μl Mg^2+ lysis buffer (Upstate Biotechnology, Lake Placid, N.Y.) and homogenized by pipetting. After a brief centrifugation to remove the cell debris, 300 μl of supernatant was incubated with the agarose-conjugated p21-binding domain (PBD) of human PAK-1 (10 μg, 30 min, Upstate Biotechnology). The agarose beads were washed with 1 ml of lysis buffer 5 times and re-suspended in 30 μl of 2×SDS buffer. After 10 min centrifugation at 14,000 g, 15 μl of supernatant from each sample was subjected to electrophoresis in 15% PAGE. […] For total Rac protein measurement, 5 μl of the original cell lysates were used for electrophoresis and western analysis. […] Pulmonary artery endothelial cells were incubated with HGF (10 ng/mL) or Sph-1-P (1 μM) for 1 or 5 min. Cells were lysed, supernatants collected, and activated GTP-bound Rac was precipitated by agarose-conjugated human PAK-1 p21-binding domain and subsequently immunoblotted by anti-Rac mAb. Total Rac protein was detected using cell lysates.

[3] = vs vehicle control, ±SEM, thrombin 100 μM

For `CCCCCCCCCCCCC/C=C/[C@@H](O)[C@@H](N)COP(=O)(O)O` [Sph 1-P, sphingosine 1-phosphate, reference compound], the “TER response in words” value ([1]; thrombin, 10-60 min) was “brisk and sustained increase in TER”, the “changes in TER 30 min” value [1, 3] was “+50 ± 6%” and the “changes in TER 60 min” value [1, 3] was “+35 ± 4%”. For the same molecule, the “changes in TER 10 min” value ([1]; vs vehicle control, ±SEM, thrombin 100 μM, (+) increased, (−) decreased) was “+50 ± 5%”, the “effect on electrical resistance of epithelial cells” value [2] was “did enhance epithelial cell integrity” and the Rac activity (Rac GTPase) was “rapidly and transiently increases Rac activity”.
